The test system of this series is sugarcane. In words: Field trials in 1.5 year plant cane: phytotoxicity (% damage) to sugarcane. It counts as in vivo. As to conditions: 200 g/ha. The procedure:
Five field trials are carried out in 1.5 year plant cane to examine the effect on sugarcane of combinations of compound of Formula I with various PS-II inhibiting herbicides. Plot sizes are 20 m^2 and results shown are the average of 3 replicate treatments.

Each structure is given as a SMILES string.

In the case of `COCCOCc1nc(C(F)(F)F)ccc1C(=O)C1=C(O)C2CCC(C2)C1=O` (stereo not shown) [Formula I], the “% Damage (Average of three trials).” value was found to be 8%.

The values above are taken from US20110190126A1, “WEED CONTROL METHOD AND HERBICIDAL COMPOSITION” (SYNGENTA CROP PROTECTION, INC., priority 2008, published 2011).
